# Tests used:
# [1] = test system: H9-dtomato-luciferase tumor; test: Efficacy study, xenograft bioluminescence imaging; format: in vivo, NOD.Cg-Prkdcscid Il2rgtm1Wjl/SzJ mice (human H9 xenografts); settings: 2 mg/kg IP on days 1, 4, 8, 11; after day 17 of engraftment
# From the text: FIG. 15. Efficacy study using NanoRomidepsin PDLLA. […] In vivo, BLI images were acquired to determine the response after the romidepsin and NanoRomidepsin PDLLA treatment. All cohorts were imaged on days 7, 10, 14, and 17 days (arrows) after post-engraftment using Lago X Spectrum Imaging System before the administration of drugs. After acquisition of images, a mean BLI curve of human H9 xenografts was generated where the y axis represents total flux (photon/s) and x axis represents time (Days) function.
# [2] = test system: acetylation of histone proteins H3 and H4 in HH cells; test: Acetylation of histone H3 and H4 (flow cytometry, Western blot); format: cell-based, human; settings: increasing doses, 30 hours
# Procedure: Flow Cytometry. Cells were harvested after 30 hours of treatment, washed twice with PBS, fixed with 4% paraformaldehyde solution and permeabilized with 70% methanol before incubating with the relevant antibodies: HDAC1 Polyclonal Antibody (Proteintech), Rabbit anti-Acetyl Histone H3 K9/K14, and Rabbit Anti-Acetyl Histone H4 (Millipore). After 30 minutes incubation at room temperature cells are washed twice with PBS and FITC conjugated secondary Goat anti-rabbit antibodies (Thermofisher) were added. Cells were incubated on ice for 30 minutes and then washed in PBS. After the second wash, cells were resuspended in PBS with 4% FBS and ready for signal acquisition on a flow cytometer. Apoptosis in cell lines was assessed by the presence of cleaved Poly (ADP-ribose) polymerase-1 (PARP) using a flourochrome conjugated anti-cleaved PARP antibody (BD Biosciences). After staining the cells were acquired using an Attune Flow Cytometer and the data analyzed using FloJo analysis software. The Mean Fluorescence intensity (MFI) was indicative of the level of expression of each marker.
# Western Blots. […] Antibodies were detected with the corresponding horseradish peroxidase-linked secondary antibodies. […] Signal detection and imaging was captured and analyzed using a CHEMIDOC™ System (Bio-Rad) with signal quantification. […]
structure (smiles),measurement,setting,value
"C/C=C1\NC(=O)[C@H]2CSSCC/C=C/[C@H](CC(=O)N[C@H](C(C)C)C(=O)N2)OC(=O)[C@H](C(C)C)NC1=O [Romidepsin, (1S,4S,7Z,10S,16E,21R)-7-Ethylidene-4,21-diisopropyl-2-oxa-12,13-dithia-5,8,20,23-tetrazabicyclo[8.7.6]tricos-16-ene-3,6,9,19,22-pentone]",tumor response (BLI) compared to the control and ghost nanoparticle group,[1],cytostatic effect
same,acetylation of H3 and H4 (flow cytometry),[2],concentration dependent increase in the acetylation of both H3 and H4

# From patent US20250302767A1, “TREATMENT OF CANCER AND AUTOIMMUNE DISORDERS USING NANO POLYMERS OF HISTONE DEACETYLASE INHIBITORS” (University of Virginia Patent Foundation, priority 2021, published 2025)
